Laboratory results published in patent publication US5194437A, “1,4-disubstituted piperazines” (Adir et Compagnie, priority 1990, dated 1993).
pKi: −log10 of the molar value.

Assays:
[1] = molecular target: T1, 5-HT1A receptors (Rattus norvegicus, UniProt P19327); test: Spontaneous tail flick test (STF), agonist and antagonist activity; format: in vivo, male Wistar rats; set-up: from tissue; host or cells: whole animal, male Wistar rat (in vivo); settings: for Spontaneous tail flicks M.E.D.: agonist: induction of STF, s.c., minimum effective dose; for ED50: rat, sc, 1 h, antagonist: inhibition of STF induced by 8-OH-DPAT 0.63 mg/kg s.c., compound s.c. 60 min before test, read-out: Spontaneous tail flicks ID50 (95% C.L.)
T1 sequence (P19327 1-422): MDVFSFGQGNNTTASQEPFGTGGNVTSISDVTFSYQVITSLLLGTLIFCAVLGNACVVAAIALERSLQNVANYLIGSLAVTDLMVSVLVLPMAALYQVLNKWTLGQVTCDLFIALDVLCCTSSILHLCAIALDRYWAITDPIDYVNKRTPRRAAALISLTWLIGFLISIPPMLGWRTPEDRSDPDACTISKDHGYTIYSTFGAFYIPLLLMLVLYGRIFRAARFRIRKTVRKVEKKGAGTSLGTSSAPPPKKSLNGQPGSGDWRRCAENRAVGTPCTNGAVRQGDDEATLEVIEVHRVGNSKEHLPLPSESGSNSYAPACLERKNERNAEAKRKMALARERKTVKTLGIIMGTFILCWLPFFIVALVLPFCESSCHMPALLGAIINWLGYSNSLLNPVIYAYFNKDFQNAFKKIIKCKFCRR
Description: (§1) The tests were carried out on male Wistar rats weighing from 200 to 220 g which had free access to food and drinking water, in standard cages.
(§2) The animals are housed individually for the hypothermia, corticosterone secretion and flat body posture tests, and in groups of three for the tail flick test.
(§3) The laboratory temperature is kept at 21°±1° C., with 60 ±5% humidity. The rats are subjected to a light/dark cycle of 12 hours/12 hours (the light cycle commencing at 7.30 a.m.).
(§4) a/ General procedure for tests of agonist and antagonist activities on 5-HT1A receptors.
(§5) The test compounds were administered subcutaneously (s.c.) 60 minutes before the start of the test, that is to say 30 minutes before the vehicle (agonist responses) or 8-OH-DPAT (antagonist responses).
(§6) In all the tests, the solvent is used in parallel as the control. The animals were allowed to rest in their cages during the time between the injections and evaluation.
(§7) For the agonist studies, the solvent was administered at a dose of 1 ml/kg s.c. 30 minutes before the start of the test. For the antagonist studies, doses of 8-OH-DPAT inducing sub-maximal responses were chosen, i.e. doses of 0.63, 0.16, 0.16 and 0.16 mg/kg s.c. for the tail flick test, the flat body posture test, the corticosterone secretion test and the hypothermia test, respectively.
Tail flicks were determined in animals restrained in horizontal, opaque plastics cylinders, the animals' tails hanging freely over the edge of the laboratory bench. After a 5-minute adaptation period, the number of movements made in 5 minutes is recorded. One STF is defined as the raising of the tail to a level higher than the level of the body axis [Millan M. J. et al., J. Pharmacol. Exp. Ther., 256, 973-982 (1990)].
(§8) In general, after variance analysis, the results are subjected to Dunnett's test. Results are regarded as significant if p<0.05.
(§9) The doses of the test compounds are all expressed in terms of the base. Unless otherwise mentioned, all the compounds were dissolved in sterile water (to which a few drops of lactic acid are added, if necessary) and administered at a volume of 1 ml/kg s.c..

[2] = molecular target: T1, 5-HT1A receptors; test: Corticosterone secretion (CS), plasma, agonist and antagonist activity; format: in vivo, male Wistar rats; set-up: from tissue; host or cells: whole animal, male Wistar rat (in vivo); settings: for Corticosterone secretion M.E.D.: agonist: induction of CS, s.c., minimum effective dose; for ED50: rat, sc, 1 h, antagonist: inhibition of CS induced by 8-OH-DPAT 0.16 mg/kg s.c., compound s.c. 60 min before test, read-out: Corticosterone secretion ID50 (95% C.L.)
Description: as §1, §2, §3, §4, §5, §6, §7
(§10) The same animals were employed for the evaluation of the effect of the test compounds on the FBP and for the determination of the plasma levels of CS. All the tests were carried out in the morning between 10.30 and 12.30, i.e. when the cicardian levels of CS are at their lowest.
(§11) The presence of FBP is defined by a characteristic posture of the animal. The animal is then in a position of ventral decubitus with the hind limbs clearly in extension. 5 minutes after observation of FBP, the animals are decapitated and the trunk blood is collected in chilled tubes containing 50 μl of a 10% EDTA solution. After centrifugation at 4000 rpm, the plasma is removed and stored at -30° C. until assay.
CS was determined using a radio-competitive assay for a CS-binding protein in plasma: transcortin. The latter is obtained from monkey serum. Separation of the CS-transcortin complexes from free CS was effected by means of a solution of dextran and active charcoal. The detection limit was 50 pg/tube. Intra- and inter-assay variations were 5 and 15%, respectively [cf. Rivet J. M. et al., Eur. J. Pharmacol., 183, 634-635 (1990)].
Since the base levels of CS in plasma are never zero, the following formula was used to calculate the percentage inhibition of plasmatic CS induced by 8-OH-DPAT: [formula]
as §8, §9

[3] = molecular target: T1, 5-HT1A receptors; test: Flat body posture (FBP), agonist response and antagonism of 8-OH-DPAT; format: in vivo, male Wistar rats; set-up: from tissue; host or cells: whole animal, male Wistar rat (in vivo); settings: sc
Description: as §1, §2, §3, §4, §5, §6, §7, §10
25 minutes after the treatment (i.e. 5 minutes before decapitation), the animals are observed in their cages and the presence or absence of FBP is noted.
as §11, §8
For the dose-response for induction and inhibition of FBP, the effective doses 50 (ED50) (doses at which 50% of the animals show a response) were calculated by the method of Litchfield and Wilcoxon.
as §9

[4] = molecular target: T1, 5-HT1A receptors; test: In vitro binding test, 5-HT1A receptors, [3]H-8-OH-DPAT, rat hippocampus membranes; set-up: Hippocampus from the brains of decapitated rats; from tissue; host or cells: rat hippocampus membranes (male Wistar); species or system rat (male Wistar); settings: for Affinity (pKi): hot ligand [3]H-8-OH-DPAT 0.4 nM, rat hippocampus membranes, 25° C., 30 minutes
Description: Hippocampus from the brains of decapitated rats was immediately frozen on dry ice and then stored at -80° C. until preparation of membranes. The tissue was homogenised at 4° C. in the appropriate buffer using a Polytron (Brinkman Instruments - Lucerne - Switzerland) and centrifuged at 20,000 rpm.
Incubation was carried out at 25° C. for 30 minutes. Non-specific binding was defined by 10 μM of 5-HT. The tests were terminated by rapid filtration by means of a Brandel harvester over glass-fibre filters pretreated with 0.1% polyethyleneimine.
The inhibitory concentration 50 values (IC50) were determined according to method 8 of Tallarida R. J. and Murray R. B., Manual of pharmacological calculations with computer programs, Springer Verlag, N.Y. (1987).
The pKi was calculated according to the formula [formula] where [L] is the concentration of the hot ligand ([3]H-8-OH-DPAT, 0.4 nM) and Kd is the apparent dissociation constant determined from saturation experiments.
The test substances were dissolved in the incubation buffer.

[5] = molecular target: T1, 5-HT1A receptors; test: Body temperature (hypothermia), agonist and antagonist activity; format: in vivo, male Wistar rats; set-up: from tissue; host or cells: whole animal, male Wistar rat (in vivo); settings: for Hypothermia M.E.D.: agonist: induction of hypothermia, s.c., minimum effective dose; for ED50: rat, sc, 1 h, antagonist: inhibition of hypothermia induced by 8-OH-DPAT 0.16 mg/kg s.c., compound s.c. 60 min before test, read-out: Hypothermia ID50 (95% C.L.)
Description: as §1, §2, §3, §4, §5, §6, §7
The rats are immobilised and a lubricated digital thermometer (Thermistoprobe from Testotherm, Basle, Switzerland) is inserted into the rectum to a depth of 5 cm. 30 seconds after insertion, the temperature is read off a digital scale. The percentage inhibition is calculated with the aid of the formula mentioned above.
as §8, §9

[6] = molecular target: T1, 5-HT1A receptors; test: Overall agonist/antagonist behaviour at 5-HT1A receptors (in vivo tests); set-up: from tissue; host or cells: whole animal, male Wistar rat (in vivo); species or system male Wistar rats; settings: conclusion from Tables 1 and 2
Description: as §4, §5, §6, §7

[7] = 1 h, read-out: Flat body posture ED50 (95% C.L.), antagonism of 8-OH-DPAT, inhibition of FBP, 8-OH-DPAT 0.16 mg/kg s.c., compound s.c. 60 min before test
[8] = induction of FBP, s.c., dose at which 50% of the animals show a response, read-out: Flat body posture ED50 (95% C.L.), agonist response

Row | Affinity (pKi) [4] | ED50 [5] [mg/kg] | SMILES | Spontaneous tail flicks M.E.D. [1] [mg/kg] | ED50 [1] [mg/kg] | Corticosterone secretion M.E.D. [2] [mg/kg] | ED50 [2] [mg/kg] | ED50 [3, 7] [mg/kg] | ED50 [3, 8] [mg/kg] | Hypothermia M.E.D. [5] [mg/kg] | pKi [4] | Behaviour towards 5-HT1A receptors [6]
1 | 8.42 | 4.36 | c1ccc2c(c1)CC(N1CCN(c3cccc4c3OCCCO4)CC1)C2 [Example 9, 4-[benzo(1,5)dioxepin-6-yl]-1-(indan-2-yl)-piperazine] | > 10.0 | 1.59 | > 2.5 | > 2.5 | < 2.5 | > 2.5 | 5.0 | – | –
2 | 9.18 | 0.58 | c1ccc2c(c1)CC(CCN1CCN(c3cccc4c3OCCO4)CC1)C2 [Example 20, 4-(benzodioxan-5-yl)-1-[2-(indan-2-yl)-ethyl]-piperazine] | – | 0.18 | > 2.5 | < 2.5 | < 2.5 | > 2.5 | 10.0 | – | –
3 | – | – | O=C1CC2(CCCC2)CC(=O)N1CCCCN1CCN(c2ncccn2)CC1 [buspirone, reference compound] | > 10.0 | 3.71 | > 2.5 | > 10 | > 10 | 7.4 | 2.5 | – | agonist behaviour

Row | SMILES | Affinity (pKi) [4] | ED50 [5] [mg/kg] | Spontaneous tail flicks M.E.D. [1] [mg/kg] | ED50 [1] [mg/kg] | Corticosterone secretion M.E.D. [2] [mg/kg] | ED50 [2] [mg/kg] | ED50 [3, 7] [mg/kg] | ED50 [3, 8] [mg/kg] | Hypothermia M.E.D. [5] [mg/kg] | pKi [4] | Behaviour towards 5-HT1A receptors [6]
4 | c1ccc2c(c1)CC(CN1CCN(c3cccc4c3OCCO4)CC1)C2 [Example 14, 4-(benzodioxan-5-yl)-1-[(indan-2-yl)-methyl]-piperazine] | – | < 2.5 | – | 0.19 | > 2.5 | > 2.5 | ≥ 2.5 | > 2.5 | > 10.0 | 8.47 | –
